Test results reported in patent publication US20240224993A1, “ANTIMICROBIAL COMPOSITIONS” (GOJO Industries, Inc., priority 2009, published 2024).

Experiments:
S. marcescens #14756 = test: ASTM E 2315 time-kill procedure, S. marcescens; format: cell-based; conditions: contact time 15 seconds
Protocol: (§1) In vitro efficacy of these compositions was measured against E. coli, S. aureus, E. faecium, S. marcescens, S. aureus (MRSA), P. mirabilis, K. pneumoniae, and S. epidermidis. The test was conducted according to the ASTM E 2315 method, “Standard Guide for Assessment of Antimicrobial Activity Using a Time-Kill Procedure.” Contact time was 15 seconds.
(§2) In vitro efficacy of these compositions was measured against S. marcescen, and S. aureus. The test was conducted according to the ASTM E 2315 method, “Standard Guide for Assessment of Antimicrobial Activity Using a Time-Kill Procedure.” Contact time was 15 seconds.

S. aureus #6538 = test: ASTM E 2315 time-kill procedure, S. aureus; format: cell-based; conditions: contact time 15 seconds
Protocol: as §1, §2

[1] = 0.5 wt. % diol, 0 wt. % ethanol
[2] = 0.5 wt. % diol, 15 wt. % ethanol
[3] = 0.5 wt. % diol, 30 wt. % ethanol
[4] = 1.0 wt. % diol, 0 wt. % ethanol
[5] = 1.0 wt. % diol, 15 wt. % ethanol
[6] = 1.0 wt. % diol, 30 wt. % ethanol

Compound: CCO [ethanol]
- Log Reduction-S. marcescens #14756 (S. marcescens #14756; 0 wt. % diol, 30 wt. % ethanol): 0.45 log
- Log Reduction-S. aureus #6538 (S. aureus #6538; 0 wt. % diol, 30 wt. % ethanol): 0 log

Compound: CCCCCCC(O)CO (centres unmarked) [1,2-octanediol]
- Log Reduction-S. marcescens #14756 (S. marcescens #14756; [1]): 0.3 log
- Log Reduction-S. marcescens #14756 (S. marcescens #14756; [2]): 0.1 log
- Log Reduction-S. marcescens #14756 (S. marcescens #14756; [3]): >5.1 log
- Log Reduction-S. marcescens #14756 (S. marcescens #14756; [4]): 3.5 log
- Log Reduction-S. marcescens #14756 (S. marcescens #14756; [5]): 2.3 log
- Log Reduction-S. marcescens #14756 (S. marcescens #14756; [6]): >5.1 log
- Log Reduction-S. aureus #6538 (S. aureus #6538; [1]): 0 log
- Log Reduction-S. aureus #6538 (S. aureus #6538; [2]): 0.2 log
- Log Reduction-S. aureus #6538 (S. aureus #6538; [3]): 0.1 log
- Log Reduction-S. aureus #6538 (S. aureus #6538; [4]): 0.2 log
- Log Reduction-S. aureus #6538 (S. aureus #6538; [5]): 2.6 log
- Log Reduction-S. aureus #6538 (S. aureus #6538; [6]): 0.9 log
